Consider five compounds from publication PMC12138661, “Anti-Trypanosoma cruzi Effect of Fatty Acids from Porcelia macrocarpa Is Related to Interactions of Cell Membranes at Different Microdomains as Assessed Using Langmuir Monolayers” (ACS Omega, 2025).

The structures appear in SMILES notation. In brackets after ≈: the same amount, converted by molar mass. Bounds are passed on as bounds.

Data set [1] deals with trypomastigote forms of T. cruzi (strain Y). As to the kind of experiment: In vitro EC50 against trypomastigote forms of T. cruzi (resazurin viability). In kind it is cell-based. Particulars: Trypanosoma cruzi; trypomastigotes, 24 h; read-out: T. cruzi EC50 TRYPO. The method, then: Trypomastigote forms (strain Y) of T. cruzi were obtained from Swiss mice (Mus musculus) previously infected intraperitoneally. The trypomastigote forms were used to infect LLC-MK2 cell cultures consisting of Macaca mulatta kidney epithelial cells (ATCC CCL 7) grown in RPMI-1640 medium containing 2% fetal bovine serum (FBS). The infected cell cultures were maintained in an incubator at 37 °C with 5% CO2, as previously described. , To evaluate the 50% effective concentration (EC50) against the trypomastigote forms of T. cruzi, mixture 1–10 was serially solubilized in the RPMI-1640 culture medium in 96-well plates. Subsequently, the trypomastigote forms of T. cruzi were added, at a concentration of 1 × 10^6 trypomastigotes per well. After an incubation period of 24 h at 37 °C with 5% CO2, to determine the viability of trypomastigotes, 20 μL of 10% Alamar Blue (resazurin) was added, followed by a new incubation of the plates for 20 h under the same conditions. At the end of the tests, the plates were read by absorption using a microplate spectrophotometer (Filter Max F5 Multi-Mode Microplate Reader) at 570 nm, as previously described. Benznidazole was used as a positive control, while cells not subjected to treatment were used as a negative control.

In data set [2] the test system is amastigote forms of T. cruzi. As to the kind of experiment: In vitro EC50 against intracellular amastigote forms of T. cruzi in peritoneal macrophages (Giemsa, infection index). The class given is cell-based. Particulars: Trypanosoma cruzi, Peritoneal macrophage; intracellular amastigotes, 48 h; read-out: T. cruzi EC50 AMA. As to the method: After collecting and counting the cells, they were seeded in Nunc brand 16-well plates and incubated for 18 h at 37 °C in an incubator containing 5% CO2. Nonadherent cells were then removed by washing with RPMI-1640 medium. Subsequently, the cells were infected with trypomastigotes at a ratio of 10:1 per well during an incubation period of 4 h. The mixture of compounds, previously diluted in series, was added and incubated for 48 h to determine the EC50 against amastigotes. After the incubation phase, the glass slides were fixed using MeOH for 5 min and then stained with Giemsa for 7 min. This procedure allowed for observation under a light microscope. The infection index was obtained in 200 macrophages/slide according to the formula: infected macrophages × number of amastigotes/total number of macrophages. Benznidazole was used as a standard drug. ,

A short description of data set [3]: Cytotoxicity against mammalian cells (MTT). The class given is cell-based. Particulars: mouse, NCTC clone 929 fibroblasts, NCTC clone 929 murine fibroblasts. As to the method:
The cytotoxicity of the mixture of 1–10 was examined in cells of the NCTC lineage (clone 929) at a density of 6 × 10^4 cells per well. The cells were cultivated in 96-well plates containing different concentrations of the mixture, serially diluted using RPMI 1640 medium supplemented with 10% fetal bovine serum (FBS). Incubation took place over 48 h, in an incubator maintained at 37 °C with 5% CO2. The cell viability of NCTC cells (clone 929) was subsequently evaluated using the MTT colorimetric assay.

Another data set deals with T. cruzi. Also on record: method as in number not given. To be noted: literature data; ref number not given; cited from earlier work.
The subject of another data set is T. cruzi epimastigotes. The arrangement: method as in number not given. To be noted: literature data; ref number not given; cited from earlier work.
Data set [4] concerns trypomastigote forms of T. cruzi. The arrangement: method as in number not given. Particulars: previous studies; ref number not given; cited from earlier work.
For a further data set, the system named is mammalian cells. The arrangement: method as in number not given. Particulars: literature data; ref number not given; cited from earlier work.
The subject of data set [5] is amastigote forms of L. (L.) infantum. The arrangement: method as in number not given. To be noted: previous studies; ref number not given; cited from earlier work.

`O=C(Cn1ccnc1[N+](=O)[O-])NCc1ccccc1` [benznidazole]: the values for the EC50 in data set [1] and in data set [2] were 3.9 ± 1.2 mg/L (≈ 15 µM) and 0.9 ± 0.2 mg/L (≈ 3.46 µM), respectively. The CC50 at 48 h in data set [3] was greater than 200 mg/L.
On to `CCCCCCCCCCCCCCCCCC(=O)O` [stearic acid], for which, in the data set with T. cruzi, the “activity against T. cruzi” value is reported as “inactivity”.
Regarding `CCCCCCCCC#CCCCCCCCC(=O)O` [9-octadecinoic acid], the “inhibition of growth of T. cruzi epimastigotes” value with T. cruzi epimastigotes is given as “inhibitory capacity”. In addition, the “activity against trypomastigote forms of T. cruzi” value in data set [4] was “effective results”.
Turning to `CCCC#CC#CCCCCCCCCCCC(=O)O` [macrocarpathic acid, 12,14-octadecadiinoic acid], the “cytotoxic effect on mammalian cells” value in the data set on mammalian cells is listed as “cytotoxic effect”.
Regarding `C=CCCCCCCC#CCCCCCCCCCCCC(=O)O` [Compound 2, docos-21-en-13-inoic acid], in data set [5], the “in vitro activity against amastigote forms of L. (L.) infantum” value is “in vitro activity”.
